In patent publication EP0418099B1, “Process of preparation of 10, 11-Methylenedioxy-20 (RS) camptothecin and 10, 11-methylenedioxy-20 (S) - camptothecin analog” (RESEARCH TRIANGLE INSTITUTE, priority 1989, dated 1991):
Values after ≈ are worked out from the molar mass of the structure shown. Structures can show the parent of a compound that is named as a salt. One block for each compound: values may come before it.

How the values were obtained:
human colorectal tumors = test: Human colon tumor histioculture, inhibition of cell proliferation; type: cell-based; details: concentration inhibiting by 50% the incorporation of [H]thymidine into DNA, tumors exposed to compounds for 24 hours, then thymidine for 3 days
Source text: As used herein, the term "cancer" is synonymous with the terms "malignant tumor" and more generally "tumor". […] See H.L. Davis, Chemotherapy of Large Bowel Cancer, Cancer (Phila.) 50: 2638-2646 (1982); J.R. Neefe and P.S. Schein, Chapter 43: The Management of Disseminated Large-Bowel Cancer in Principals of Cancer Treatment, page 402, ed. S.K. Carter, E. Glatstein and R.B. Livingston, McGraw-Hill Co., 1982; K. Mekhail-Ishak, Cancer Research, 49: 4866-4869 (1989) and P.J. Ferguson and Y.C. Cheng, Cancer Research, 49: 1148-1153 (1989).
Inhibition of tumor cell proliferation was performed in vitro on human colorectal tumors obtained from surgery or biopsy, as described by Vescio et al (Proc. Nat'l. Acad. Sci. USA 84:5029-5033, 1987) with the following modifications: Tumors were cultured 1 day prior to drug addition; tumors were exposed to compounds for 24 hours, washed, and then exposed to ^3[H]thymidine for 3 days.

[1] = Wani et al., J. Med. Chem.; cited from earlier work
topoisomerase I = topoisomerase I (Bos taurus, UniProt A0AAA9TV68); details: relative to camptothecin; cited from earlier work
Chain of topoisomerase I (A0AAA9TV68 entry or part of it): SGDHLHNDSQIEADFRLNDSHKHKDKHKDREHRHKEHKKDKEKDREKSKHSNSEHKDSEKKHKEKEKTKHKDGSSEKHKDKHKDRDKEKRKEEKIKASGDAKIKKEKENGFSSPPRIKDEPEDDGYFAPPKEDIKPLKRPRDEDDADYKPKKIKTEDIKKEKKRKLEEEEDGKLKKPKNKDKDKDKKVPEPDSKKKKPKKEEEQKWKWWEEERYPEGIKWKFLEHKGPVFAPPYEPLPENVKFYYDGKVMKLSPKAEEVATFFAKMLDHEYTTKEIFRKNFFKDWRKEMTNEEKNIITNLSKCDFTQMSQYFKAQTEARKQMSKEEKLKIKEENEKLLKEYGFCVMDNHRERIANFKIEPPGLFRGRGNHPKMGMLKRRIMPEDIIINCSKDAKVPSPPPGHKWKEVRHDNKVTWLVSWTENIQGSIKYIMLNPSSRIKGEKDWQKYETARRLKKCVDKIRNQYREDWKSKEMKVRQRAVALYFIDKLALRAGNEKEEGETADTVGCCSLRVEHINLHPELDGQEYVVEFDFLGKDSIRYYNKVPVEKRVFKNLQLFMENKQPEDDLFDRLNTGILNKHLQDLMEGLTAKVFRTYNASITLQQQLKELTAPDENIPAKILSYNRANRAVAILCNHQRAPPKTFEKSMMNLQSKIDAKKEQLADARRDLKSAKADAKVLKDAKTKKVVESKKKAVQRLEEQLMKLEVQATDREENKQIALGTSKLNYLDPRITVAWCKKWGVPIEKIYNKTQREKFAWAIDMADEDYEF

9KB = test: In vitro cytotoxicity test 9KB; type: cell-based; details: 9KB test, compared with camptothecin
Source text: (§1) 10,11-MDO-20(S)-CPT is also very potent in the L-1210 leukemia in vivo life prolongation assay. The synthesis of […] is known and described in Wani et al, J. Med. Chem., 29 (11), 2358-2363 (1986) and in U.S. 4,894,456.

L-1210 leukemia = L-1210 leukemia in vivo life prolongation assay; parameters: species or system mice
Source text: as §1

9PS = test: In vitro cytotoxicity test 9PS; type: cell-based; details: 9PS test, compared with camptothecin
Source text: as §1

IC50 (human colorectal tumors): ~10 ng/mL
SMILES: CCC(O)(C(=O)O)c1cc2n(c(=O)c1CO)Cc1cc3cc4c(cc3nc1-2)OCO4 (racemic) [Compound 8, 10,11-MDO-20(RS)-CPT, Na^+ SALT]

SMILES: CCC1(O)C(=O)OCc2c1cc1n(c2=O)Cc2cc3cc(OC)c(OC)cc3nc2-1 (racemic) [10,11-dimethoxy-20(RS)-CPT]
activity [1]: totally inactive

SMILES: CCC1(O)C(=O)OCc2c1cc1n(c2=O)Cc2cc3cc4c(cc3nc2-1)OCO4 (racemic) [Compound 3, 10,11-MDO-20(RS)-CPT]
potency in the inhibition of topoisomerase I (topoisomerase I): three to five times the potency of camptothecin | IC50 (human colorectal tumors): ~5 ng/mL (≈ 0.0127 µM)

SMILES: CCC1(O)C(=O)OCc2c1cc1n(c2=O)Cc2cc3c(N)c4c(cc3nc2-1)OCO4 (racemic) [Compound 4, 9-AMINO-10,11-MDO-20(RS)-CPT]
IC50 (human colorectal tumors): ~5 ng/mL (≈ 0.0123 µM)

SMILES: CC[C@@]1(O)C(=O)OCc2c1cc1n(c2=O)Cc2cc3cc4c(cc3nc2-1)OCO4 [Compound 2, 10,11-MDO-20(S)-CPT]
ED50 (9KB): equal to or more potent than camptothecin itself | life prolongation (L-1210 leukemia): very potent | ED50 (9PS): equal to or more potent than camptothecin itself
